Assay: Solid tumour dose-escalation study: pharmacokinetics (plasma, urine)
Type: in vivo, human
Conditions: for Plasma concentration of AZD1208, Gmean: Cycle 1, Day 15
Procedure: The schedules for collection of blood and urine samples for PK analyses in each cohort in both studies are described in Supplementary Table 1. When necessary for clinical response assessment in the AML study, a bone marrow sample for PK analysis was collected at Cycle 1, Day 28.
The concentration of AZD1208 in plasma and urine was determined by Covance, on behalf of Clinical Bioanalysis Alliance at AstraZeneca R&D, using a bioanalytical method. A volume of 0.05 ml of K2EDTA human plasma sample was extracted by liquid–liquid extraction using 0.7 ml of methyl tert-butyl ether. Approximately 100 µl of the supernatant was transferred, evaporated to dryness and reconstituted with 350 µl of 1:1 methanol:water, and a 5 µl injection was made to the high-performance liquid chromatography (HPLC) column. HPLC separations were performed on a Phenomenex LUNA C18 (50 × 2 mm, 5 µm) column using a mobile phase of 0.1% formic acid in water (A) and 0.1% formic acid in acetonitrile (B) at a flow rate of 0.6 ml/min and a column temperature of 40 °C. AZD1208-D5 was used as the internal standard. Detection was performed in a Sciex API4000 mass spectrometer, in a positive electrospray ionisation mode, using multiple reaction monitoring detection (AZD1208: 380.0–>248.1; AZD1208-D5: 385.0–>253.1).

Which results are given for `N[C@@H]1CCCN(c2c(/C=C3\SC(=O)NC3=O)cccc2-c2ccccc2)C1` [AZD1208]?
Plasma concentration of AZD1208, Gmean (0.25 h post-dose, 540 mg): n=3 496.8 ng ml; Plasma concentration of AZD1208, Gmean (0.5 h post-dose, 120 mg): n=3 1109 ng ml; Plasma concentration of AZD1208, Gmean (0.5 h post-dose, 240 mg): n=6 881.5 ng ml; Plasma concentration of AZD1208, Gmean (0.5 h post-dose, 360 mg): n=3 884.4 ng ml; Plasma concentration of AZD1208, Gmean (0.5 h post-dose, 540 mg): n=3 774 ng ml; Plasma concentration of AZD1208, Gmean (0.5 h post-dose, 700 mg): n=4 1042 ng ml; Plasma concentration of AZD1208, Gmean (0.5 h post-dose, 800 mg): n=2 1420 ng ml; Plasma concentration of AZD1208, Gmean (1 h post-dose, 120 mg): n=3 1319 ng ml; Plasma concentration of AZD1208, Gmean (1 h post-dose, 240 mg): n=6 1316 ng ml; Plasma concentration of AZD1208, Gmean (1 h post-dose, 360 mg): n=3 1983 ng ml; Plasma concentration of AZD1208, Gmean (1 h post-dose, 540 mg): n=3 1691 ng ml; Plasma concentration of AZD1208, Gmean (1 h post-dose, 700 mg): n=4 1320 ng ml; Plasma concentration of AZD1208, Gmean (1 h post-dose, 800 mg): n=2 1783 ng ml; Plasma concentration of AZD1208, Gmean (1.5 h post-dose, 120 mg): n=3 1367 ng ml; Plasma concentration of AZD1208, Gmean (1.5 h post-dose, 240 mg): n=6 1843 ng ml; Plasma concentration of AZD1208, Gmean (1.5 h post-dose, 360 mg): n=3 3212 ng ml; Plasma concentration of AZD1208, Gmean (1.5 h post-dose, 540 mg): n=3 3302 ng ml; Plasma concentration of AZD1208, Gmean (2 h post-dose, 120 mg): n=3 1681 ng ml; Plasma concentration of AZD1208, Gmean (2 h post-dose, 240 mg): n=6 2340 ng ml; Plasma concentration of AZD1208, Gmean (2 h post-dose, 360 mg): n=3 3106 ng ml; Plasma concentration of AZD1208, Gmean (2 h post-dose, 540 mg): n=3 3646 ng ml; Plasma concentration of AZD1208, Gmean (2 h post-dose, 700 mg): n=4 2802 ng ml; Plasma concentration of AZD1208, Gmean (2 h post-dose, 800 mg): n=2 1705 ng ml; Plasma concentration of AZD1208, Gmean (4 h post-dose, 120 mg): n=3 1649 ng ml; Plasma concentration of AZD1208, Gmean (4 h post-dose, 240 mg): n=6 1899 ng ml; Plasma concentration of AZD1208, Gmean (4 h post-dose, 360 mg): n=3 2483 ng ml; Plasma concentration of AZD1208, Gmean (4 h post-dose, 540 mg): n=3 2508 ng ml; Plasma concentration of AZD1208, Gmean (4 h post-dose, 700 mg): n=4 2882 ng ml; Plasma concentration of AZD1208, Gmean (4 h post-dose, 800 mg): n=2 2509 ng ml; Plasma concentration of AZD1208, Gmean (6 h post-dose, 120 mg): n=3 1657 ng ml; Plasma concentration of AZD1208, Gmean (6 h post-dose, 240 mg): n=6 1637 ng ml; Plasma concentration of AZD1208, Gmean (6 h post-dose, 360 mg): n=2 2130 ng ml; Plasma concentration of AZD1208, Gmean (6 h post-dose, 540 mg): n=3 2023 ng ml; Plasma concentration of AZD1208, Gmean (6 h post-dose, 700 mg): n=4 3291 ng ml; Plasma concentration of AZD1208, Gmean (6 h post-dose, 800 mg): n=2 3401 ng ml; Plasma concentration of AZD1208, Gmean (8 h post-dose, 120 mg): n=3 1262 ng ml; Plasma concentration of AZD1208, Gmean (8 h post-dose, 240 mg): n=6 1466 ng ml; Plasma concentration of AZD1208, Gmean (8 h post-dose, 360 mg): n=3 1813 ng ml; Plasma concentration of AZD1208, Gmean (8 h post-dose, 540 mg): n=3 1739 ng ml; Plasma concentration of AZD1208, Gmean (pre-dose, 120 mg): n=3 903.1 ng ml; Plasma concentration of AZD1208, Gmean (pre-dose, 240 mg): n=6 560.9 ng ml; Plasma concentration of AZD1208, Gmean (pre-dose, 360 mg): n=3 602.5 ng ml; Plasma concentration of AZD1208, Gmean (pre-dose, 540 mg): n=4 266.6 ng ml; Plasma concentration of AZD1208, Gmean (pre-dose, 700 mg): n=3 819 ng ml; Plasma concentration of AZD1208, Gmean (pre-dose, 800 mg): n=2 1099 ng ml; Half-life, max (following a single dose): 103 h; Half-life, min (following a single dose): 18.9 h; Mean half-life (following a single dose): 37.2 h; Median Tmax (multiple dosing): ~ 4 h; Tmax range (multiple dosing): 1.5 to 6 h; AZD1208 dose observed in urine (multiple dosing, Day 15): 0.5%; Renal clearance (single and multiple dosing): negligible; AZD1208 dose eliminated in urine (single dose, over 72 h): ~ 1%; Median Tmax (single dosing): ~ 5 h; Tmax range (single dosing): 1.5 to 25 h
